Data: US20220079895A1, “COMPOSITION FOR PREVENTING OR TREATING LIVER DISEASES” (AceBiomed, Inc., priority 2020, published 2022)

Tests used:
collagen I [1] = test: expression of collagen I increased by TGF-β1 in hepatocytes AML12; format: cell-based, mouse; details: AML12 cells; for additive interaction with colchicine in inhibiting the expression of collagen I: 5 nM colchicine + 30 μg/ml DPP-4 inhibitor, TGF-β1 (5 ng/ml)
Protocol: (§1) Mouse hepatocytes, AML12 cells, were incubated at 37° C., 95% air and 5% CO2 in a DMEM/F12 medium containing 5 μg/ml insulin, 5 μg/ml transferrin, 5 ng/ml selenium, 40 ng/ml dexamethasone, 10% fetal bovine serum (FBS) and 1% penicillin/streptomycin. AML12 cells pre-treated with 5 nM of colchicine and 30 μg/ml of a dipeptidyl peptidase-4 (DPP-4) inhibitor were treated with TGF-β1 (5 ng/ml) or 0.2 mM of palmitate after 8 hours, and further incubated for additional 16 hours.
(§2) Total RNA was extracted using an RNeasy mini kit (Qiagen), and then synthesized into cDNA using a high-capacity cDNA reverse transcription kit (Thermo Fisher). The same amount of cDNA was amplified using a SYBR™ green PCR master mix and a 10 pM primer set for each gene. The amplification process was subjected to an initial denaturation process at 95° C. for 5 minutes, and repetitively replication at 95° C. for 10 seconds, 58.5° C. for 10 seconds, and 72° C. for 10 seconds for a total of 40 times.

NASH-induced model mouse [2] = test: blood biochemical test: serum triglyceride, NASH-induced model; format: in vivo; details: for Triglyceride: serum, HFD + Colchicine alone
Protocol: Triglyceride levels in mice were measured using an EZ-Triglyceride quantification assay kit (Dogen Bio). 1 ml of 5% NP-40 was added to a mouse serum sample, homogenized on ice, and then sufficiently cooled at room temperature. The sample in which all triglycerides were dissolved by heating once more was centrifuged at 13,000 rpm for 2 minutes, and then an insoluble material was removed, and the sample was diluted 10-fold with distilled water before assay. 2 μl of lipase was added to the sample dispensed in a 96 well plate by 90 μl and reacted for 20 minutes at room temperature, and then the reaction mixture was added to each sample by 50 μl, and further reacted at room temperature for 30 minutes in a light-shielded state. Thereafter, absorbance was measured at 570 nm using a microplate reader.

SREBP1 [3] = test: expression of SREBP1 induced by palmitate in hepatocytes AML12; format: cell-based, mouse; details: AML12 cells; for additive interaction with colchicine in inhibiting the expression of SREBP1: 5 nM colchicine + 30 μg/ml DPP-4 inhibitor, 0.2 mM palmitate
Protocol: as §1, §2

NASH-induced model mouse [4] = test: blood biochemical test: serum bilirubin, NASH-induced model; details: for Bilirubin: serum, HFD + Colchicine alone
[5] = test system: ApoA1 (Apolipoprotein A1); test: expression of fat accumulation-related gene ApoA1 in liver tissues, NASH-induced model; format: in vivo, mouse; details: high fat diet 30 weeks
Protocol: as §2

[6] = test system: α-SMA (α-smooth muscle actin); test: expression of fibrosis-related gene α-SMA in liver tissues, NASH-induced model; format: in vivo, mouse; details: high fat diet 30 weeks
Protocol: as §2

IL-1β [7] = test: expression of inflammation-related gene IL-1β in liver tissues, NASH-induced model; format: in vivo, mouse; details: high fat diet 30 weeks
Protocol: as §2

IL-6 = test: expression of inflammation-related gene IL-6 in liver tissues, NASH-induced model; format: in vivo, mouse; details: high fat diet 30 weeks
Protocol: as §2

[8] = test system: Dgat (Diglyceride acyltransferase); test: expression of fat accumulation-related gene Dgat in liver tissues, NASH-induced model; format: in vivo, mouse; details: high fat diet 30 weeks
Protocol: as §2

NASH-induced model mouse [9] = test: blood biochemical test: serum total cholesterol, NASH-induced model; format: in vivo; details: for Total cholesterol: serum, HFD + Colchicine alone
Protocol: A total cholesterol amount of mice was measured using a Total cholesterol assay kit (Cell Biolabs). […] Thereafter, 50 μl of a cholesterol reaction reagent was added, and the reaction was performed at 37° C. for 45 minutes by shielding light. For the sample after the reaction, absorbance was measured at 540 to 570 nm using a microplate reader.

collagen I [10] = test: expression of fibrosis-related gene collagen I in liver tissues, NASH-induced model; format: in vivo, mouse; details: high fat diet 30 weeks
Protocol: as §2

NASH-induced model mouse [11] = test: hydroxyproline in liver tissues, NASH-induced model; format: in vivo; details: high fat diet 30 weeks
Protocol: 100 mg of liver tissue was homogenized with physiological saline, and then a liver tissue supernatant was separated. The separated supernatant was hydrolyzed at 120° C. for 3 hours by adding the same amount of 12 N HCl. The cooled sample was vortexed and then centrifuged at 10,000 g for 3 minutes, and absorbance was measured at 550 nm using a final microplate reader by using a hydroxyproline assay kit.

NASH-induced model mouse [12] = test: superoxide (DHE) in liver tissues, NASH-induced model; format: in vivo; details: high fat diet 30 weeks
Protocol: In order to measure production of superoxide in liver tissues of mice, dihydroethidium (DHE) was used as a superoxide fluorescent indicator. In summary, deparaffinized liver tissue slides were reacted at 37° C. for 30 minutes with 10 μM DHE in a light-shielded humidity chamber. After the reaction, fluorescence indicating DHE was measured through a filter in a wavelength band of 580 nm in an Olympus FV1000 fluorescence microscope.

NASH-induced model mouse [13] = test: blood biochemical test: serum AST, NASH-induced model; format: in vivo; details: for AST: serum, HFD + Colchicine alone
Protocol: The activity of aspartate aminotransferase (AST) of mice was measured using an AST activity assay kit (Abcam).

IL-1β [14] = test: expression of IL-1β induced by palmitate in hepatocytes AML12; format: cell-based, mouse; details: AML12 cells
Protocol: as §1, §2

[15] = test system: nonalcoholic steatohepatitis (NASH)-induced model mouse; test: H&E staining of liver tissues, fat accumulation, NASH-induced model; format: in vivo; details: high fat diet 30 weeks
Protocol: For H&E staining, deparaffinized tissues were reacted with a 50% hematoxylin solution at room temperature for 20 minutes, reacted with 1% HCl for 1 second, and then immediately transferred to a 0.5% eosin solution and stained for 20 minutes. Thereafter, the tissue was washed with distilled water, reacted with graded alcohol and finally dehydrated with xylene. The dehydrated tissue was fixed on a coverslip using a permount.

NASH-induced model mouse [16] = test: blood biochemical test: serum ALT, NASH-induced model; format: in vivo; details: for ALT: serum, HFD + Colchicine alone
Protocol: The activity of alanine aminotransferase (ALT) of mice was measured using an ALT activity assay kit (Sigma-Aldrich).

TGF-β1 = test: expression of fibrosis-related gene TGF-β1 in liver tissues, NASH-induced model; format: in vivo, mouse; details: high fat diet 30 weeks
Protocol: as §2

TNF-α = test: expression of inflammation-related gene TNF-α in liver tissues, NASH-induced model; format: in vivo, mouse; details: high fat diet 30 weeks
Protocol: as §2

SREBP1 [17] = test: expression of fat accumulation-related gene SREBP1 in liver tissues, NASH-induced model; format: in vivo, mouse; details: high fat diet 30 weeks
Protocol: as §2

[18] = high-fat diet 30 weeks, sitagliptin co-administered with colchicine by concentration
[19] = co-administration with colchicine, for each sitagliptin concentration
[20] = co-administration with colchicine 40 μg/kg, for each sitagliptin concentration
[21] = 5 nM colchicine alone, 0.2 mM palmitate after 8 hours, additional 16 hours
[22] = colchicine 40 μg/kg alone, orally once a day

N#C[C@@H]1CCCN1C(=O)CNC12CC3CC(CC(O)(C3)C1)C2 [vildagliptin]
additive interaction with colchicine in inhibiting the expression of collagen I (collagen I [1]): slight additive interaction

N[C@@H](CC(=O)N1CCn2c(nnc2C(F)(F)F)C1)Cc1cc(F)c(F)cc1F [sitagliptin]
level of triglyceride in serum, additive interaction compared with colchicine alone (NASH-induced model mouse [2]; [18]): decreases further
additive interaction with colchicine in inhibiting the expression of SREBP1 (SREBP1 [3]): most excellent additive interaction
level of bilirubin in serum, additive interaction compared with colchicine alone (NASH-induced model mouse [4]; [18]): decreases further
effect of reducing the expression of ApoA1, interaction with colchicine [5, 19]: additive interaction
effect of reducing the expression of α-SMA, interaction with colchicine [6, 19]: additive interaction
effect of reducing the expression of IL-1β, interaction with colchicine (IL-1β [7]; [19]): additive interaction
effect of reducing the expression of IL-6, interaction with colchicine (IL-6; [19]): additive interaction
effect of reducing the expression of Dgat, interaction with colchicine [8, 19]: additive interaction
level of cholesterol in serum, additive interaction compared with colchicine alone (NASH-induced model mouse [9]; [18]): decreases further
additive interaction with colchicine in inhibiting the expression of collagen I (collagen I [1]): most excellent additive interaction
effect of reducing the expression of collagen I, interaction with colchicine (collagen I [10]; [19]): additive interaction
hydroxyproline inhibitory effect, interaction with colchicine (NASH-induced model mouse [11]; [20]): additive interaction
effect of reducing the production of superoxide, interaction with colchicine (NASH-induced model mouse [12]; [19]): additive interaction
level of AST in serum, additive interaction compared with colchicine alone (NASH-induced model mouse [13]; [18]): decreases further
additive interaction with colchicine in inhibiting the expression of IL-1β (IL-1β [14]; 5 nM colchicine + 30 μg/ml DPP-4 inhibitor, 0.2 mM palmitate): most excellent additive interaction
steatosis reduction effect, interaction with colchicine [15, 20]: additive interaction
level of ALT in serum, additive interaction compared with colchicine alone (NASH-induced model mouse [16]; [18]): decreases further
effect of reducing the expression of TGF-β1, interaction with colchicine (TGF-β1; [19]): additive interaction
effect of reducing the expression of TNF-α, interaction with colchicine (TNF-α; [19]): additive interaction
effect of reducing the expression of SREBP1, interaction with colchicine (SREBP1 [17]; [19]): additive interaction

Cc1cc(N2CCN([C@@H]3CN[C@H](C(=O)N4CCSC4)C3)CC2)n(-c2ccccc2)n1 [teneligliptin]
additive interaction with colchicine in inhibiting the expression of SREBP1 (SREBP1 [3]): excluding
additive interaction with colchicine in inhibiting the expression of collagen I (collagen I [1]): slight additive interaction

CC(C)(C)OC[C@@H]1C(=O)NCCN1C(=O)C[C@H](N)Cc1cc(F)c(F)cc1F [evogliptin]
additive interaction with colchicine in inhibiting the expression of collagen I (collagen I [1]): slight additive interaction

COc1cc2c(c(OC)c1OC)-c1ccc(OC)c(=O)cc1[C@@H](NC(C)=O)CC2 [Colchicine, colchicine]
Triglyceride (NASH-induced model mouse [2]): 201.9 ± 0.27 mg/dL
Triglyceride (NASH-induced model mouse [2]; listed as colchicine): decreased
expression of SREBP1 induced by palmitate (SREBP1 [3]; [21]): reduced
Bilirubin (NASH-induced model mouse [4]): 0.57 ± 0.05 mg/dL
Bilirubin (NASH-induced model mouse [4]; listed as colchicine): decreased
expression of ApoA1 in liver tissues ([5]; colchicine 40 μg/kg alone): reduced
expression of α-SMA in liver tissues ([6]; colchicine 40 μg/kg alone): reduced
expression of IL-1β in liver tissues (IL-1β [7]; colchicine 40 μg/kg alone): reduced
expression of IL-6 in liver tissues (IL-6; colchicine 40 μg/kg alone): reduced
expression of Dgat in liver tissues ([8]; colchicine 40 μg/kg alone): reduced
Total cholesterol (NASH-induced model mouse [9]): 264.8 ± 0.87 mg/dL
Total cholesterol (NASH-induced model mouse [9]; listed as colchicine): decreased
expression of collagen I increased by TGF-β1 (collagen I [1]; 5 nM colchicine alone, TGF-β1 (5 ng/ml) after 8 hours, additional 16 hours): reduced
expression of collagen I in liver tissues (collagen I [10]; colchicine 40 μg/kg alone): reduced
accumulation of hydroxyproline in liver tissues (NASH-induced model mouse [11]; [22]): reduced
production of superoxide in liver tissues (NASH-induced model mouse [12]; colchicine 40 μg/kg alone): reduced
AST (NASH-induced model mouse [13]): 200.7 ± 2.74 U/L
AST (NASH-induced model mouse [13]; listed as colchicine): decreased
expression of IL-1β induced by palmitate (IL-1β [14]; [21]): reduced
fat accumulation in liver tissues (H&E) [15, 22]: slightly reduced
ALT (NASH-induced model mouse [16]): 154.7 ± 4.24 U/L
ALT (NASH-induced model mouse [16]; listed as colchicine): decreased
expression of TGF-β1 in liver tissues (TGF-β1; colchicine 40 μg/kg alone): reduced
expression of TNF-α in liver tissues (TNF-α; colchicine 40 μg/kg alone): reduced
expression of SREBP1 in liver tissues (SREBP1 [17]; colchicine 40 μg/kg alone): reduced
